# Measured values reported in US7498436B2, “Substituted hydroxyethylamines” (Pharmacia & Upjohn Company LLC, priority 2002, dated 2009).
row,SMILES,melting point [°C]
1,CCCN(CCC)C(=O)c1cc(C(=O)N[C@@H](Cc2cc(F)cc(F)c2)[C@H](O)CNCc2cccc(OC)c2)cc(-c2ccccc2)c1.Cl,230 to 233
2,CCCN(CCC)C(=O)c1cc(C(=O)N[C@@H](Cc2ccccc2)[C@H](O)CNCc2cccc(OC)c2)cc(-c2ccsc2)c1.Cl,199 to 201
3,CCCN(CCC)C(=O)c1cc(C(=O)N[C@@H](Cc2ccccc2)[C@H](O)CNCc2cccc(OC)c2)cc(-c2ccccc2)c1.Cl,214 to 219
4,CCCN(CCC)C(=O)c1cc(C(=O)N[C@@H](Cc2ccccc2)[C@H](O)CNCc2cccc(OC)c2)cc(-c2ccc(OC)cc2)c1.Cl,205 to 209
